Assay [1] has as its system resistant clinical isolates of P. aeruginosa. Briefly: MIC against resistant clinical isolates of P. aeruginosa. The class given is cell-based. Particulars: Pseudomonas aeruginosa, P. aeruginosa strain. As for the experimental part:
(§1) The microbial strains used in this study were obtained from the collection of the Gause Institute of New Antibiotics. […] Storage was carried out in accordance with CLSI guidelines. Prior to experimentation, the bacterial strains were revived from cryopreservation by inoculating them onto trypticase soy agar (Becton, Dickinson, France) and incubating at (36 ± 1) °C for 16–24 h. Individual morphologically homogeneous colonies were then suspended in sterile physiological saline, and the turbidity of the suspension was adjusted to 0.5 McFarland units using a DEN-1 spectrophotometer (Biosan, Riga, Latvia), which corresponds to a concentration of 1.5 × 10^8 CFU/mL.
(§2) The samples were dissolved in sterile distilled water or dimethyl sulfoxide (DMSO), depending on the physicochemical properties of the compounds under investigation, to a concentration of 10,000 µg/mL.
(§3) Activity was evaluated by determining the minimum inhibitory concentration (MIC) values using the microdilution method in Mueller–Hinton Broth (Beckton and Dickinson, Le Pont-de-Claix, France), in accordance with the standard procedure for assessing the antimicrobial susceptibility of microorganisms.
(§4) The analysis was conducted in 96-well microtiter plates (Medpolymer, Saint Petersburg, Russia). The bacterial inoculum was introduced within 15 min of preparation. […] Microbial growth in the presence of the tested compounds was compared to the growth control (without exposure to the test samples). The MIC was defined as the lowest concentration at which visible microbial growth was inhibited.

The test system of assay [2] is P. aeruginosa ATCC 27853. Put plainly: MIC, broth microdilution, P. aeruginosa ATCC 27853. The class given is cell-based. As for the experimental part:
The microbial strains used in this study were obtained from the collection of the Gause Institute of New Antibiotics. […] Storage was carried out in accordance with CLSI guidelines.
as §3, §4
(§5) The MIC values of the reference strains were required to fall within the acceptable ranges specified in [30], provided that standard assay conditions were maintained.

In assay [3] the test system is E. coli JW5503 kanS EF-G P610L. Briefly: MIC in LB medium, aminoglycoside-resistant mutant EF-G P610L. Type of assay: cell-based. Particulars: 18 h. As for the experimental part:
(§6) The determination of the minimum inhibitory concentration (MIC) was performed on three strains from the working collection of MSU: E. coli JW5503 [34], which lacked a kanamycin resistance cassette removed as per the method outlined in [39], and two strains derived from this strain through in vivo selection with kanamycin. The latter strains harbored P610T and P610L substitutions in the fusA gene. For the MIC determination, 100 μL (rows 2–11) and 200 μL (row 1) of LB liquid medium containing a 1:1000 dilution of overnight culture was added to each well of a 96-well transparent plate. Subsequently, 2 μL of a 50 μg/mL antibiotic solution was introduced into the first row, and serial two-fold dilutions were performed across each horizontal row, decreasing the antibiotic concentration incrementally. The final two rows were designated as controls: row 12 contained LB medium without cells or antibiotics, and row 11 contained cells without antibiotics. Following 18 h of incubation at 37 °C with constant agitation, the optical density at 590 nm (A590) was measured using a Victor X5 2030 spectrofluorometer (PerkinElmer, Waltham, MA, USA). The MIC was defined as the antibiotic concentration in the first well where no cell growth occurred. Each experiment was conducted in triplicate for all tested antibiotics.

The subject of assay [4] is E. coli JW5503 kanS EF-G P610T. Briefly: MIC in LB medium, aminoglycoside-resistant mutant EF-G P610T. The class given is cell-based. Particulars: 18 h. As for the experimental part: as §6
Assay [5] concerns E. coli S30 Extract System, firefly luciferase synthesis. Briefly: Cell-free translation inhibition assay (firefly luciferase synthesis). The class given is biochemical. As to conditions: final concentration of 2 μM; water = 100. As for the experimental part:
The inhibitory effects of the tested compounds on in vitro firefly luciferase synthesis were evaluated using the E. coli S30 Extract System for Linear Templates (Promega, Madison, WI, USA), as described previously. Briefly, reaction mixtures with a total volume of 5 μL were prepared, containing 0.1 mM of a mixture of all canonical amino acids, 4 U of RiboLock RNase Inhibitor (Thermo Fisher Scientific, Waltham, MA, USA), and 2 μM of the tested compounds. After pre-incubation at room temperature for 5 min, 100 ng of in vitro-transcribed firefly luciferase mRNA was added. The mixtures were then incubated at 37 °C for 20 min. After incubation, each reaction was supplemented with 5 μL of Bright-Glo™ reagent (Promega, Madison, WI, USA), and chemiluminescence was measured using a VICTOR X5 Multilabel Plate Reader (PerkinElmer, Waltham, MA, USA). The luminescence values were normalized to the negative control (water), which was assigned 100% activity.

The subject of assay [6] is E. coli JW5503 kanS. Put plainly: MIC in LB medium, E. coli JW5503 kanS. The class given is cell-based. Particulars: 18 h. As for the experimental part:
as §6

In assay [7] the test system is E. coli JW5503 transformed with pJC27 plasmids. Put plainly: Translation accuracy reporter (mutant β-galactosidase, X-Gal staining). The class given is cell-based. Particulars: 4a,b, 6a,b and tobramycin 50 mg/mL; streptomycin, kanamycin 5 mg/mL; rifampicin 1 mg/mL. The text has this: It is known that tobramycin inhibits protein biosynthesis by the blocking of initiation and inducing translation errors. We have tested whether the new tobramycin derivatives 4a,b and 6a,b retain the ability to induce translation errors. This assay uses an E. coli strain with a plasmid construct that encodes beta-galactosidase in such a way that a functional protein is only synthesized in the presence of translation errors. If the mechanism of action of the antibiotic is related to the translation errors, we observe indigo blue staining along the edge of the inhibition zone because functional b-galactosidase degrades the substrate X-Gal. As a result, if the antibiotic causes translation errors, blue staining forms around the edge of the inhibition zone. […] According to this, an introduction at the 6″-position of the aminoalkylamino or guanidinoalkylamino residues of tobramycin retains an original mechanism of aminoglycoside’s antibacterial activity affecting the protein synthesis.
To qualitatively evaluate translation accuracy in the presence of antibiotics, E. coli JW5503 [34] (kanamycin resistance cassette removed as per) transformed with pJC27 plasmids was utilized. The plasmids encode the β-galactosidase gene containing a mutation in its active center (E537: GAA→GAC/GGG), alongside a control plasmid without the mutation. Active β-galactosidase synthesis could only occur if translation errors were introduced. Petri dishes (9 cm) containing 20 mL of solid LB agar (1.5%) supplemented with chloramphenicol (11.3 μg/mL) and X-Gal (80 μg/mL) were prepared. A secondary layer comprising 3.5 mL of LB agar (0.6%), supplemented with 11.3 μg/mL chloramphenicol and 0.5 mL of liquid culture (A600~1.0), was added and allowed to solidify. Antibiotics were applied to the plates in 1 μL aliquots at the following concentrations: 50 mg/mL for 4a, 4b, 6a, 6b, and tobramycin; 5 mg/mL for streptomycin and kanamycin; and 1 mg/mL for rifampicin. Plates were incubated at 37 °C for 18 h. […] Results were documented using a Samsung Galaxy Tab A71 camera.

Assay [8] relates to S. aureus ATCC 29213. Put plainly: MIC, broth microdilution, S. aureus ATCC 29213. The class given is cell-based. As for the experimental part:
as §1, §2, §3, §4, §5
(In general: In broth dilution the organism is exposed to a series of concentrations in liquid medium.)

Assay [9] concerns E. coli JW5503. Put plainly: MIC, broth microdilution, E. coli JW5503. The class given is cell-based. As to conditions: E. coli JW5503; Table 1. As for the experimental part:
as §1, §2, §3, §4

In assay [10] the test system is M. smegmatis ATCC 607. Put plainly: MIC, broth microdilution, M. smegmatis ATCC 607. Type of assay: cell-based. As to conditions: Table 1. As for the experimental part:
as §1, §2, §3, §4

Assay [11] deals with E. coli ATCC 25922. Put plainly: MIC, broth microdilution, E. coli ATCC 25922. The class given is cell-based. As for the experimental part: as §1, §2, §3, §4, §5
The mark [12] stands for this setting: quality control, must fall in acceptable ranges of [30].

Values after ≈ are worked out from the molar mass of the structure shown. Read-outs that look alike come from different tables or passages of the source.

The text below walks through data of PMC11672562, “Synthesis and Antibacterial Activity of New 6″-Modified Tobramycin Derivatives” (Antibiotics, 2024).

Turning to `C[C@H]1[C@H](NC(=O)/C(=N\OC(C)(C)C(=O)O)c2csc(N)n2)C(=O)N1S(=O)(=O)O` [Aztreonam, aztreonam, reference compound], the minimal inhibitory concentration (MIC) (in general, the lowest concentration that inhibits growth of the organism) in assay [1] (Table 2 column 3, head prints 27853) was 16 µg/mL (≈ 36.7 µM); in assay [1] (Table 2 column 4, head prints 27853), 8 µg/mL (≈ 18.4 µM); in [1] (Table 2 column 5, head prints 27853) it was 32 µg/mL (≈ 73.5 µM); in assay [1] (Table 2 column 6, head prints 27853) it was 16 µg/mL (≈ 36.7 µM); in assay [1] (Table 2 column 7, head prints 27853), 16 µg/mL (≈ 36.7 µM); in assay [2] (Pseudomonas aeruginosa, ATCC27853, P. aeruginosa ATCC 27853, Table 2, read-out: MIC) it was 4 µg/mL (≈ 9.19 µM).

Take `CC[C@H]1OC(=O)[C@H](C)[C@@H](O[C@H]2C[C@@](C)(OC)[C@@H](O)[C@H](C)O2)[C@H](C)[C@@H](O[C@@H]2O[C@H](C)C[C@H](N(C)C)[C@H]2O)[C@](C)(O)C[C@@H](C)C(=O)[C@H](C)[C@@H](O)[C@]1(C)O` [Erythromycin, erythromycin, reference compound]: the MIC is 2 µg/mL (≈ 2.73 µM) in [3] (Escherichia coli); 2 µg/mL (≈ 2.73 µM) in assay [4] (Escherichia coli); 2 µg/mL (≈ 2.73 µM) in assay [6] (Escherichia coli, JW5503KANS). Further, the “% control signal (relative maximal rate of firefly luciferase accumulation in vitro)” value in [5] is 0.8%.

As to `CO[C@H]1/C=C/O[C@@]2(C)Oc3c(C)c(O)c4c(O)c(c(/C=N/N5CCN(C)CC5)c(O)c4c3C2=O)NC(=O)/C(C)=C\C=C\[C@H](C)[C@H](O)[C@@H](C)[C@@H](O)[C@@H](C)[C@H](OC(C)=O)[C@@H]1C` [Rifampicin, rifampicin, reference compound], the MIC in [3] (Escherichia coli) is 5 µg/mL (≈ 6.08 µM); in assay [4] (Escherichia coli) it was 5 µg/mL (≈ 6.08 µM); in [6] (Escherichia coli, JW5503KANS), 5 µg/mL (≈ 6.08 µM). Further, in [5], the “% control signal (relative maximal rate of firefly luciferase accumulation in vitro)” value stood at 87%. Also, the “induction of translation errors (blue staining at edge of inhibition zone)” value in assay [7] is listed as “does not induce ribosomal errors”.

Turning to `[H]/N=C(/N)N[C@H]1[C@H](O)[C@@H](O)[C@H](O[C@@H]2O[C@@H](C)[C@](O)(C=O)[C@H]2O[C@@H]2O[C@@H](CO)[C@H](O)[C@@H](O)[C@@H]2NC)[C@@H](N/C(N)=N\[H])[C@@H]1O` [streptomycin, reference compound], the “induction of translation errors (blue staining at edge of inhibition zone)” value in [7] is listed as “acted as miscoding inductors”.

As to kanamycin A [reference compound], the MIC is reported as 0.5 µg/mL in assay [8] (Table 1); 80 µg/mL in assay [3] (E. coli JW5503 kanS EF-G P610L, LB medium); 1 µg/mL in assay [9]; 0.125 µg/mL in assay [10]; 80 µg/mL in [4] (E. coli JW5503 kanS EF-G P610T, LB medium); over 32 µg/mL in [2] (P. aeruginosa ATCC 27853, Table 1). Also, the MIC in assay [2] (P. aeruginosa ATCC 27853, Table 1, listed as kanamycin) is recorded as over 32 µg/mL; in assay [11] (Table 1), 1 µg/mL; in [6] (E. coli JW5503 kanS, LB medium) it was 5 µg/mL. The “MIC of control antibiotic” value in [8] (setting [12]) and in assay [11] (setting [12]) was 1 to 4 µg/mL throughout. In [5], the “% control signal (relative maximal rate of firefly luciferase accumulation in vitro)” value is given as 0.1%. Moreover, the “induction of translation errors (blue staining at edge of inhibition zone)” value in assay [7] was “acted as miscoding inductors”.
